The values below come from ChEMBL document CHEMBL3244298, “Adamantylthiourea derivatives as antiviral agents” (J Med Chem, 1979).

The subject of data set [1] is unidentified influenza virus. Briefly: Antiviral activity against Influenza virus A2/Asian/J305 infected in rhesus monkey kidney cells assessed as concentration required to reduce viral titer by >= 2 logarithms after 4 days by tube dilution method. It is filed as functional.
The subject of data set [2] is Influenza B virus. The data set can be described thus: Antiviral activity against Influenza B virus (B/Lee/40) infected in rhesus monkey kidney cells assessed as growth inhibition after 4 days by tube dilution method. As to conditions: B/Lee/1940. It is filed as functional, organism-based.
The subject of data set [3] is Enterovirus. Briefly: Antiviral activity against Rhinovirus 42 infected in human WI38 cells assessed as growth inhibition after 7 days by tube dilution method. Type of data set: functional, organism-based. As to conditions: WI-38.
Data set [4] is described as follows: Acute toxicity in po dosed mouse measured for 24 hrs. It is filed as organism-based. As to conditions: in vivo.
Data set [5] has as its system unidentified influenza virus. Briefly: Antiviral activity against Influenza virus A2/Asian/J305 infected in mouse assessed as survival at 200 mg/kg, ip administered two doses at 24 hrs post viral infection followed by single dose for subsequent days relative to control. Type of data set: functional. Particulars: route intraperitoneal.
Data set [6] relates to Respirovirus muris. The data set can be described thus: Antiviral activity against Sendai virus infected in ip dosed mouse assessed as protection against viral infection. It is filed as functional, organism-based.
The nature of data set [7]: Acute toxicity in ip dosed mouse measured for 24 hrs. It is filed as organism-based. As to conditions: in vivo.
Data set [8] concerns unidentified influenza virus. The data set can be described thus: Antiviral activity against Influenza virus A2/Asian/J305 infected in mouse assessed as survival at 200 mg/kg, ip administered 3 doses on day of viral infection followed by 2 doses on next day and single dose per day for next 2 days relative to control. It is filed as functional. As to conditions: 48 h, route intraperitoneal.

For data set [9], the system named is unidentified influenza virus. The data set can be described thus: Antiviral activity against Influenza virus A2/Asian/J305 infected in mouse assessed as survival at 200 mg/kg, ip administered two doses at 48 hrs post viral infection followed by single dose for subsequent days relative to control. Particulars: route intraperitoneal. It is filed as functional.

For data set [10], the system named is unidentified influenza virus. Briefly: Antiviral activity against Influenza virus A2/Asian/J305 infected in po dosed mouse assessed as concentration required to cause survival at 21 days. Particulars: 504 h, read-out: PD50. Type of data set: functional.
Data set [11] concerns unidentified influenza virus. The data set can be described thus: Antiviral activity against Influenza virus A2/Asian/J305 infected in ip dosed mouse assessed as concentration required to cause survival at 21 days. Type of data set: functional. As to conditions: 504 h, read-out: PD50.
In data set [12] the test system is unidentified influenza virus. Briefly: Antiviral activity against Influenza virus A2/Asian/J305 infected in mouse assessed as survival at 200 mg/kg, ip administered single dose at 5 mins post viral infection followed by 2 doses per day for next 3 days relative to control. It is filed as functional. Particulars: route intraperitoneal.
For data set [13], the system named is Herpesviridae sp. The data set can be described thus: Antiviral activity against Herpes simplex virus infected in ip dosed mouse assessed as protection against viral infection. It is filed as functional, organism-based.
Data set [14] deals with Mus musculus. Briefly: Toxicity in mouse assessed as ataxia at > 600 mg/kg, ip measured for 24 hrs. It is filed as organism-based. Set-up: dose 600 mg/kg, route intraperitoneal. As to conditions: in vivo.
In data set [15] the test system is Mus musculus. Briefly: Toxicity in mouse assessed as tremors at > 600 mg/kg, ip measured for 24 hrs. Type of data set: organism-based. Also noted: dose 600 mg/kg, route intraperitoneal. As to conditions: in vivo.
For data set [16], the system named is Semliki Forest virus. The data set can be described thus: Antiviral activity against Semliki forest virus infected in ip dosed mouse assessed as protection against viral infection. It is filed as functional, organism-based.
Data set [17] concerns Mus musculus. Briefly: Toxicity in mouse assessed as CNS related side effects up to 1000 mg/kg, po measured for 24 hrs. Also noted: dose 1000 mg/kg, route oral. It is filed as organism-based, Central nervous system. As to conditions: in vivo.
Data set [18] has as its system unidentified influenza virus. Briefly: Antiviral activity against Influenza virus A2/Asian/J305 infected in mouse assessed as survival at 100 mg/kg, ip administered two doses at 48 hrs post viral infection followed by single dose for subsequent days relative to control. Type of data set: functional. As to conditions: route intraperitoneal.
Data set [19] relates to unidentified influenza virus. Briefly: Antiviral activity against Influenza virus A2/Asian/J305 infected in mouse assessed as survival at 100 mg/kg, ip administered two doses at 24 hrs post viral infection followed by single dose for subsequent days relative to control. Particulars: route intraperitoneal. Type of data set: functional.
Data set [20] concerns unidentified influenza virus. Briefly: Antiviral activity against Influenza virus A2/Asian/J305 infected in mouse assessed as survival at 50 mg/kg, ip administered 3 doses on day of viral infection followed by 2 doses on next day and single dose per day for next 2 days relative to control. Type of data set: functional. Particulars: 48 h, route intraperitoneal.
In data set [21] the test system is unidentified influenza virus. The data set can be described thus: Antiviral activity against Influenza virus A2/Asian/J305 infected in mouse assessed as survival at 100 mg/kg, ip administered single dose at 5 mins post viral infection followed by 2 doses per day for next 3 days relative to control. Type of data set: functional. As to conditions: route intraperitoneal.

For data set [22], the system named is Mus musculus. Briefly: Toxicity in mouse assessed as CNS related side effects at 100 mg/kg, ip and 300 mg/kg, po measured for 24 hrs. It is filed as organism-based, Central nervous system. As to conditions: in vivo.

Calls of active or inactive are those of the source. No cut-off for these calls is given here.

What is called LD50 is the dose at which mortality reaches 50%. As for `Nc1ccc(S(=O)(=O)NC(=S)NC23CC4CC(CC(C4)C2)C3)cc1`, the Activity in data set [1] is 12.5 µg/mL; in data set [14], “Toxic”; in [15] it was “Toxic”; in data set [17], “Non-toxic”. For the same compound, the “growth inhibition (GI)” value in [2] and in [3] was “inactive” in each case. In addition, the values for the LD50 at 24 h in data set [4] and in [7] were more than 1000 mg/kg and 775 mg/kg, respectively. The survival at 200 mg/kg in data set [5] stood at 28%; in data set [8], 77%; in [9] it was 0%; in data set [12], 36%. The result in data set [6], in data set [13] and in data set [16] was inactive. In addition, the ED50 came out at 35 mg/kg in [10] and 16 mg/kg in [11].
Take `O=C1CSC(NC23CC4CC(CC(C4)C2)C3)=N1`: the ED50 in data set [11] is more than 200 mg/kg.
Consider `NC(=S)NC12CC3CC(CC(C3)C1)C2`, for which the ED50 in data set [11] was more than 200 mg/kg.
On to `NC(=O)NC(=S)NC12CC3CC(CC(C3)C1)C2`, for which, in data set [11], the ED50 was more than 400 mg/kg.
For the compound `CCOC(=O)NC(=S)NC12CC3CC(CC(C3)C1)C2`, in data set [11], the ED50 is more than 400 mg/kg.
As to `CCOC(=O)/N=C(/NC12CC3CC(CC(C3)C1)C2)SC`, the ED50 in data set [11] was found to be 158 mg/kg.
On the same count and under the same terms, as for `Cc1ccc(S(=O)(=O)NC(=S)NC23CC4CC(CC(C4)C2)C3)cc1`, the figure is more than 200 mg/kg; as for `O=C(NC(=S)NC12CC3CC(CC(C3)C1)C2)Oc1ccccc1`, more than 400 mg/kg.
`CC(=O)Nc1ccc(S(=O)(=O)NC(=S)NC23CC4CC(CC(C4)C2)C3)cc1`: the ED50 in data set [11] is more than 200 mg/kg.
On to `NC12CC3CC(CC(C3)C1)C2` [AMANTADINE], for which the Activity was 0.05 µg/mL in data set [1] and “Toxic” in data set [22]. The “growth inhibition (GI)” value in [2] and in [3] was “inactive” each time. Also, the survival at 100 mg/kg in data set [18] was 0%; in data set [19], 77%; in data set [21] it was 67%. Besides, the outcome in data set [6], in [13] and in [16] was inactive. Besides, the ED50 in data set [10] worked out at 4 mg/kg; in data set [11], 6 mg/kg. For the same compound, in data set [20], the survival at 50 mg/kg is 72%.
